Data on three molecules can be found in patent publication US20150313837A1, “POLYMERIC HYDROGEL COMPOSITIONS WHICH RELEASE ACTIVE AGENTS IN RESPONSE TO ELECTRICAL STIMULUS” (University of Witwatersrand, Johannesburg, priority 2010, published 2015).

The series is described as follows: Drug leakage from hydrogel in PBS in absence of electric current. Type of series: physicochemical. Particulars: comparison of drugs loaded in the hydrogel. The procedure: The indomethacin-loaded hydrogels were left in […] PBS for 12 hours, and a 1 mL sample was then taken in order to assess for any drug release prior to exposure to an electric current. […] Further tests for drug release of the indomethacin-loaded hydrogels in the presence of an electric current were performed.
The system was therefore left in 50 mL of PBS for 12 hours, and 1 mL sample was taken and assessed for any presence of drugs. […] The hydrogels were then then assessed for their drug release capacity. They were once again immersed in PBS and an electric current was passed through them. This time, 35 samples were extracted and assessed by UV/visible spectroscopy for the amount of drugs which were released.
The amount of drug released ranged from 0.081 mg to 0.160 mg. The hydrogel was then assessed one last time for any leakage of drugs. The hydrogel was immersed in 50 mL of PBS for 12 hours.
One possible explanation for this phenomenon is the larger molecular size of indomethacin as compared to diclofenac sodium and ibuprofen. This larger molecular size means that indomethacin is better entrapped inside the three dimensional network of the hydrogel system.

For the molecule `O=C(O)Cc1ccccc1Nc1c(Cl)cccc1Cl` [Diclofenac sodium], the “leakage of loaded drug from hydrogel when no electric current is applied” value was “drug leakage may still have occurred on the surface”. For `CC(C)Cc1ccc(C(C)C(=O)O)cc1` (stereo not drawn) [ibuprofen] the value was “drug leakage may still have occurred on the surface”; for `COc1ccc2c(c1)c(CC(=O)O)c(C)n2C(=O)c1ccc(Cl)cc1` [indomethacin], “no leakage occurred”.
